Measured values from ChEMBL document CHEMBL4350952, “Evolution of PI3Kγ and δ Inhibitors for Inflammatory and Autoimmune Diseases” (J Med Chem, 2019).

Tests used:
[1] = test system: U-937; assay: cells; type: functional, cell-based; conditions: Homo sapiens
Description: Cytotoxicity against in human U937 cells

[2] = organism: Homo sapiens; assay: Selectivity ratio of IC50 for PI3Kbeta in human U937 cells to IC50 for GST-tagged PI3Kdelta in human U937 cells; type: cell-based
[3] = organism: Mus musculus; assay: Decrease in eosinophil influx reduction in mouse at 1 ug, it relative to control; type: functional; parameters: scale not given: the % may be the effect or the level left
[4] = organism: Mus musculus; assay: Decrease in eosinophil influx reduction in mouse at 4 ug, it relative to control; type: functional; parameters: scale not given: the % may be the effect or the level left
[5] = organism: Mus musculus; assay: Decrease in eosinophil influx reduction in mouse at 20 ug, it relative to control; type: functional; parameters: scale not given: the % may be the effect or the level left
[6] = organism: Mus musculus; assay: Decrease in neutrophil influx reduction in mouse at 1 ug, it relative to control; type: functional; parameters: scale not given: the % may be the effect or the level left
[7] = organism: Mus musculus; assay: Decrease in neutrophil influx reduction in mouse at 4 ug, it relative to control; type: functional; parameters: scale not given: the % may be the effect or the level left
[8] = organism: Mus musculus; assay: Decrease in neutrophil influx reduction in mouse at 20 ug, it relative to control; type: functional; parameters: scale not given: the % may be the effect or the level left
[9] = organism: Mus musculus; assay: Decrease in number of neutrophils in mouse BAL at 1 ug, it at 2 hrs post dose relative to control; type: functional; parameters: scale not given: the % may be the effect or the level left
[10] = organism: Mus musculus; assay: Decrease in number of neutrophils in mouse BAL at 4 ug, it at 2 hrs post dose relative to control; type: functional; parameters: scale not given: the % may be the effect or the level left
[11] = organism: Mus musculus; assay: Decrease in number of neutrophils in mouse BAL at 20 ug, it at 2 hrs post dose relative to control; type: functional; parameters: scale not given: the % may be the effect or the level left
[12] = organism: Mus musculus; assay: Decrease in number of neutrophils in mouse BAL at 4 ug, it at 8 hrs post dose relative to control; type: functional; parameters: scale not given: the % may be the effect or the level left
[13] = organism: Mus musculus; assay: Decrease in number of neutrophils in mouse BAL at 4 ug, it at 12 hrs post dose relative to control; type: functional; parameters: scale not given: the % may be the effect or the level left
[14] = organism: Rattus norvegicus; assay: Decrease in number of neutrophils in rat BAL at 5 ug, it at 2 hrs post dose relative to control; type: functional; parameters: scale not given: the % may be the effect or the level left
[15] = organism: Rattus norvegicus; assay: Decrease in number of neutrophils in rat BAL at 20 ug, it at 2 hrs post dose relative to control; type: functional; parameters: scale not given: the % may be the effect or the level left
[16] = organism: Rattus norvegicus; assay: Decrease in number of neutrophils in rat BAL at 100 ug, it at 2 hrs post dose relative to control; type: functional; parameters: scale not given: the % may be the effect or the level left
[17] = organism: Rattus norvegicus; assay: Decrease in number of neutrophils in rat BAL at 20 ug, it at 8 hrs post dose relative to control; type: functional; parameters: scale not given: the % may be the effect or the level left
[18] = organism: Rattus norvegicus; assay: Decrease in number of neutrophils in rat BAL at 20 ug, it at 12 hrs post dose relative to control; type: functional; parameters: scale not given: the % may be the effect or the level left

Which IC50 [1] does the source give for COCCOCCOCC#Cc1cccc2nc(Cn3nc(-c4cc(O)cc(F)c4)c4c(N)ncnc43)n(Cc3ccccc3C(F)(F)F)c(=O)c12 here?
The IC50 was 7.4 nM.

And the Ratio IC50 [2]?
Its Ratio IC50 is 2000.

What about the Activity [3] of the same molecule?
Its Activity is 20%.

And the Activity [4]?
The Activity was 85%.

What about the Activity [5] of the same molecule?
Its Activity is 91%.

What about the Activity [6] of the same molecule?
Its Activity is 18%.

And the Activity [7]?
Its Activity is 70%.

What about the Activity [8] of the same molecule?
Its Activity is 80%.

And the Activity [9]?
The Activity was 19%.

What about the Activity [10] of the same molecule?
Its Activity is 53%.

And the Activity [11]?
Its Activity is 68%.

And the Activity [12]?
The Activity was 45%.

And the Activity [13]?
The Activity was 23%.

What about the Activity [14] of the same molecule?
Its Activity is 9%.

What about the Activity [15] of the same molecule?
The Activity was 58%.

And the Activity [16]?
The Activity was 73%.

What about the Activity [17] of the same molecule?
Its Activity is 33%.

And the Activity [18]?
The Activity was 10%.
